Test results published in US10688200B2, “Urea-based prostate specific membrane antigen (PSMA) inhibitors for imaging and therapy” (Five Eleven Pharma Inc., priority 2015, dated 2020).
Each block holds one compound with its values, some of them ahead of it.

Assays:
PSMA [1] = target: T1, PSMA (Homo sapiens, UniProt Q04609); test: In vitro binding signals of 68Ga labeled ligands in LNCaP tumor homogenates; settings: Ga-68 radiolabeled ligands; for Total binding (TB): 37° C. 60 min; for Nonspecific binding (NSB): with 1a (PSMA11) 10 μM
T1 construct: 100 μL of freshly harvested PSMA cells; endogenous in cells; host or cells: 'PSMA cells' in the method

PSMA [2] = target: T1, PSMA; test: In vitro competitive binding assay to determine IC50 to PSMA; settings: LNCaP cells, [125I]MIP-1095 radioligand, 37° C. 1 h, mean±SD (n=4); read-out: PSMA binding affinities of cold ligands, IC50
Experimental: In Vitro Competitive Binding Assay to Determine IC50 to PSMA
In order to determine the binding affinity, in vitro competitive binding assays were performed. The LNCaP cells were incubated with 150,000 cpm of [^125I]MIP-1095 in the presence of 10 different concentrations of competing drugs. After incubation at 37° C. for 1 h, the bound and free radioactivity were separated by vacuum filtration through GF/B filter paper using a Brandel M-24R cell harvester followed by washing twice. Non-specific binding was defined with 10 μM PMPA. The cell bound radioactivity was measured with a gamma counter, 2470 Wizard^2 (Perkin-Elmer, IL). The IC50 values were calculated by fitting the data using a nonlinear regression algorithm (GraphPad Software).
The PSMA binding affinities were determined in a competitive binding assay using LNCaP human prostate carcinoma cells and the known high affinity PSMA ligand, [^125I]MIP-1095 as the radioligand. Data are expressed as mean±SD (n=4).

[3] = Biodistribution of radiotracers in normal mice; type: in vivo, mouse; settings: normal male mice
Experimental: Normal CD-1 male mice were injected via the tail vein with 35 μCi of [^68Ga] radiotracers (0.2 nmole of ligand). […] All organs were removed and blood was also collected. Each organ was weighed, and the tissue radioactivity was measured with an automated gamma counter (Wizard, Perkin Elmer). The % ID/g was calculated by comparison with samples of a standard dilution of the initial dose. All measurements were corrected for decay.

[4] = test system: PSMA-expressing LNCaP cells; test: Cell binding and internalization; type: cell-based, human; settings: 37° C.
Experimental: The cellular uptake and internalization kinetics of the [^68Ga]1a, [^68Ga]5a and [^68Ga]5b were determined using PSMA-expressing LNCaP cells. Furthermore, to be able to discriminate between total cellular activity (sum of membrane-associated and internalized activity) and internalized activity, all incubations were followed by a washing step with mild acid at 4° C. to remove specifically cell-surface bound radioligand by displacement.
LNCaP cells (in 6-well plates in triplicates) were incubated in RPMI-1640 medium with [^68Ga]1a, [^68Ga]5a or [^68Ga]5b for 0-2 h at 37° C. At the indicated time, the medium was removed and the cells were washed twice and then incubated with a mild acid buffer (50 mM glycine, 150 mM NaCl, pH 3.0) at 4° C. for 5 min. The supernatant (containing cell surface-bound radioactivity) was pooled and the cell pellet (containing internalized radioactivity) was collected with filter paper and then radioactivity in supernatant and cell pellet was counted on a gamma counter.
LNCaP cells were incubated with [^68Ga]1a, [^68Ga]5a and [^68Ga]5b for up to 2 h at 37° C. to determine whether the compound is internalized by endocytosis. The cells were then washed with a mild acid buffer to remove extracellularly bound compound.
Non specific binding (NSB) was evaluated by blocking with 20 μM PMPA. Specificity of cell uptake (SB) was calculated by subtracting the respective signals resulting from PMPA blocking. Values are expressed as % of applied radioactivity bound to 10^6 cells.

[5] = test system: LNCaP tumor bearing nude mice; test: Biodistribution of [68Ga]labeled ligand in PSMA positive tumor bearing nude mice; type: in vivo, mouse; settings: 1 h post-injection, i.v., n = 3
Experimental: In a dish contained 5×10^6 cells of LNCaP in 50% Matrigel (Becton Dickinson, Heidelberg, Germany) were subcutaneously inoculated into the left shoulder of male 5- to 6-week-old CD-1 nu/nu mice (Charles River Laboratories). The tumors were allowed to grow for 8 weeks until approximately 0.5 cm^3 in size.
The ^68Ga-radiolabeled compounds were injected via tail vein (25 μCi per mouse; 0.1-0.2 nmol). At 1 h after injection, the animals were sacrificed. Organs of interest were dissected and weighed. The radioactivity was measured with a gamma counter and calculated as % ID/g.

T1 sequence (Q04609 whole entry): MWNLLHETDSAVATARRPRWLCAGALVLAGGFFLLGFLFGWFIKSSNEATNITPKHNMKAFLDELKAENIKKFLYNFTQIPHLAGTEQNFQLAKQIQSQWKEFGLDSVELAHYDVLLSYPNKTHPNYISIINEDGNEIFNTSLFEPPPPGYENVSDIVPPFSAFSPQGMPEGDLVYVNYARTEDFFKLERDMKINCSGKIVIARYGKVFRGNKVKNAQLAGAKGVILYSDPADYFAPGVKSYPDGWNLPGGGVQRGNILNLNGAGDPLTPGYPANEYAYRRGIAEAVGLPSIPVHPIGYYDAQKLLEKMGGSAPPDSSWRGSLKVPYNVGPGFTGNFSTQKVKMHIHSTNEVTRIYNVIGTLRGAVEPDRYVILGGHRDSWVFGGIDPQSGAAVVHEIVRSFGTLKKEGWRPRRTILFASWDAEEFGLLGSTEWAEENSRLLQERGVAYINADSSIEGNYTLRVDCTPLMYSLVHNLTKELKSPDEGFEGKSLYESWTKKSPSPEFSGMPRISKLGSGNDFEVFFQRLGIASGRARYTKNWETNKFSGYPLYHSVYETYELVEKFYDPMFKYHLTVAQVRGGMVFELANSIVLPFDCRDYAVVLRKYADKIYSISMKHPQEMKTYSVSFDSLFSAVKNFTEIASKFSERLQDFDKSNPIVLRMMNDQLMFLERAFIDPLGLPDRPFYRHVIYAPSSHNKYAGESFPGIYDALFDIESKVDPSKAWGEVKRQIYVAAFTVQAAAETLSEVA

IC50 (PSMA [2]): 5 ± 1.9 nM
SMILES: O=C(O)CC[C@H](NC(=O)N[C@@H](CCCCNC(=O)[C@H](Cc1ccccc1)NC(=O)COc1ccc(C[C@H](NC(=O)CNC(=O)c2cccc(I)c2)C(=O)O)cc1)C(=O)O)C(=O)O [Compound 5c, (4S,11S,15S)-4-Benzyl-1-(4-((S)-2-carboxy-2-(2-(3-iodobenzamido)acetamido)ethyl)phenoxy)-2,5,13-trioxo-3,6,12,14-tetraazaheptadecane-11,15,17-tricarboxylic acid]

IC50 (PSMA [2]): 6 ± 1.8 nM
SMILES: O=C(O)CC[C@H](NC(=O)N[C@@H](CCCCNC(=O)[C@H](Cc1ccccc1)NC(=O)COc1ccc(C[C@H](NC(=O)CNC(=O)c2ccc(F)nc2)C(=O)O)cc1)C(=O)O)C(=O)O [Compound 5e]

IC50 (PSMA [2]): 4.6 ± 1.4 nM
SMILES: O=C(O)CC[C@H](NC(=O)N[C@@H](CCCCNC(=O)Nc1ccc(I)cc1)C(=O)O)C(=O)O [MIP-1095, reference compound]

IC50 (PSMA [2]): 5.3 ± 2.2 nM
SMILES: O=C(O)CC[C@H](NC(=O)N[C@@H](CCCCNC(=O)[C@H](Cc1ccccc1)NC(=O)COc1ccc(C[C@H](NC(=O)CNC(=O)c2ccccc2I)C(=O)O)cc1)C(=O)O)C(=O)O [Compound 5d, (4S,11S,15S)-4-Benzyl-1-(4-((S)-2-carboxy-2-(2-(2-iodobenzamido)acetamido)ethyl)phenoxy)-2,5,13-trioxo-3,6,12,14-tetraazaheptadecane-11,15,17-tricarboxylic acid]

Second part, the compound before the results:

SMILES: C[C@H](NC(=O)CCc1ccc(O)c(CN(CCN(CC(=O)O)Cc2cc(CCC(=O)NCCCCCC(=O)NCCCC[C@H](NC(=O)N[C@@H](CCC(=O)O)C(=O)O)C(=O)O)ccc2O)CC(=O)O)c1)C(=O)O [Compound 1d, (3S,7S)-22-(3-(((2-((5-(3-(((S)-1-Carboxyethyl)amino)-3-oxopropyl)-2-hydroxybenzyl)(carboxymethyl)amino)ethyl)(carboxymethyl)amino)methyl)-4-hydroxyphenyl)-5,13,20-trioxo-4,6,12,19-tetraazadocosane-1,3,7-tricarboxylic acid]
Specific binding (SB) SB = TB − NSB (PSMA [1]): 11.2
Total binding (TB) (PSMA [1]): 12.6
Nonspecific binding (NSB) (PSMA [1]): 1.4
IC50 (PSMA [2]): 26.8 ± 6.3 nM

SMILES: O=C(O)CCc1ccc(O)c(CN(CCN(CC(=O)O)Cc2cc(CCC(=O)NCCCCCC(=O)NCCCC[C@H](NC(=O)N[C@@H](CCC(=O)O)C(=O)O)C(=O)O)ccc2O)CC(=O)O)n1 [Compound 4a, (3S,7S)-22-(3-(((2-(((6-(2-Carboxyethyl)-3-hydroxypyridin-2-yl)methyl)(carboxymethyl)amino)ethyl)(carboxymethyl)amino)methyl)-4-hydroxyphenyl)-5,13,20-trioxo-4,6,12,19-tetraazadocosane-1,3,7-tricarboxylic acid]
Specific binding (SB) SB = TB − NSB (PSMA [1]): 12.0
Total binding (TB) (PSMA [1]): 13.4
Nonspecific binding (NSB) (PSMA [1]): 1.4
IC50 (PSMA [2]): 67.4 ± 30.3 nM

SMILES: O=C(O)CCc1ccc2c(c1)C[N+]13CC[N+]45CC(=O)[O][Ga-3]14([O]C(=O)C3)([O]2)[O]c1ccc(CCC(=O)NCC(=O)N[C@@H](Cc2ccc(OCC(=O)N[C@@H](Cc3ccccc3)C(=O)NCCCC[C@H](NC(=O)N[C@@H](CCC(=O)O)C(=O)O)C(=O)O)cc2)C(=O)O)cc1C5 (stereo partly drawn) [[^natGa]5b]
IC50 (PSMA [2]): 16.5 ± 3.1 nM

SMILES: O=C(O)CCc1ccc(O)c(CN(CCN(CC(=O)O)Cc2cc(CCC(=O)NCC(=O)N[C@@H](Cc3ccc(OCC(=O)N[C@@H](Cc4ccccc4)C(=O)NCCCC[C@H](NC(=O)N[C@@H](CCC(=O)O)C(=O)O)C(=O)O)cc3)C(=O)O)ccc2O)CC(=O)O)c1 [Compound 5b, (4S,11S,15S)-4-Benzyl-1-(4-((S)-2-carboxy-2-(2-(3-(3-(((2-((5-(2-carboxyethyl)-2-hydroxybenzyl)(carboxymethyl)amino)ethyl)(carboxymethyl)amino)methyl)-4-hydroxyphenyl)propanamido)acetamido)ethyl)phenoxy)-2,5,13-trioxo-3,6,12,14-tetraazaheptadecane-11,15,17-tricarboxylic acid.]
Specific binding (SB) SB = TB − NSB (PSMA [1]): 10.54
Total binding (TB) (PSMA [1]): 10.73
Nonspecific binding (NSB) (PSMA [1]): 0.18

SMILES: O=C(O)CC[C@H](NC(=O)N[C@@H](CCCCNC(=O)CCCCCNC(=O)CCc1ccc2c(c1)C[N+]13CC[N+]45CC(=O)[O][68Ga-3]14([O]C(=O)C3)([O]2)[O]c1ccc(CCC(=O)NCC(=O)O)cc1C5)C(=O)O)C(=O)O (stereo partly drawn) [[^68Ga]1c]
Biodistribution: Blood ([3]; 2 min): 8.55 ± 0.07 % dose/g
Biodistribution: Bone ([3]; 2 min): 2.30 ± 0.07 % dose/g
Biodistribution: Brain ([3]; 2 min): 0.28 ± 0.04 % dose/g
Biodistribution: Heart ([3]; 2 min): 3.48 ± 0.31 % dose/g
Biodistribution: Kidney ([3]; 2 min): 47.2 ± 2.68 % dose/g
Biodistribution: Liver ([3]; 2 min): 2.91 ± 0.15 % dose/g
Biodistribution: Lung ([3]; 2 min): 5.42 ± 0.23 % dose/g
Biodistribution: Muscle ([3]; 2 min): 2.16 ± 0.34 % dose/g
Biodistribution: Pancreas ([3]; 2 min): 2.20 ± 0.04 % dose/g
Biodistribution: Skin ([3]; 2 min): 3.00 ± 0.40 % dose/g
Biodistribution: Spleen ([3]; 2 min): 3.58 ± 0.48 % dose/g
Biodistribution: Blood ([3]; 60 min): 0.58 ± 0.07 % dose/g
Biodistribution: Bone ([3]; 60 min): 1.24 ± 0.19 % dose/g
Biodistribution: Brain ([3]; 60 min): 0.03 ± 0.01 % dose/g
Biodistribution: Heart ([3]; 60 min): 0.43 ± 0.14 % dose/g
Biodistribution: Kidney ([3]; 60 min): 83.5 ± 14.7 % dose/g
Biodistribution: Liver ([3]; 60 min): 0.79 ± 0.15 % dose/g
Biodistribution: Lung ([3]; 60 min): 0.90 ± 0.16 % dose/g
Biodistribution: Muscle ([3]; 60 min): 0.60 ± 0.13 % dose/g
Biodistribution: Pancreas ([3]; 60 min): 1.13 ± 0.17 % dose/g
Biodistribution: Skin ([3]; 60 min): 1.07 ± 0.16 % dose/g
Biodistribution: Spleen ([3]; 60 min): 1.63 ± 0.20 % dose/g

SMILES: O=C(O)CC[C@H](NC(=O)N[C@@H](CCCCNC(=O)[C@H](Cc1ccccc1)NC(=O)COc1ccc(C[C@H](NC(=O)CNC(=O)C[N+]23CC[N+]45CC[N+]6(CC(=O)O)CC[N+]7(CC2)CC(=O)[O][68Ga-3]6347[O]C(=O)C5)C(=O)O)cc1)C(=O)O)C(=O)O (stereo partly drawn) [[^68Ga]5a]
Cell surface binding activity ([4]; 5 min): 1.67 ± 0.24 % ID/10^6 cells
Internalized activity ([4]; 5 min): 0.21 ± 0.04 % ID/10^6 cells
Cell surface binding activity ([4]; 15 min): 1.92 ± 0.24 % ID/10^6 cells
Internalized activity ([4]; 15 min): 1.14 ± 0.21 % ID/10^6 cells
Cell surface binding activity ([4]; 30 min): 1.96 ± 0.27 % ID/10^6 cells
Internalized activity ([4]; 30 min): 2.55 ± 0.42 % ID/10^6 cells
Cell surface binding activity ([4]; 60 min): 1.89 ± 0.13 % ID/10^6 cells
Internalized activity ([4]; 60 min): 3.70 ± 0.44 % ID/10^6 cells
Cell surface binding activity ([4]; 90 min): 2.33 ± 0.01 % ID/10^6 cells
Internalized activity ([4]; 90 min): 5.40 ± 0.13 % ID/10^6 cells
Cell surface binding activity ([4]; 120 min): 2.03 ± 0.23 % ID/10^6 cells
Internalized activity ([4]; 120 min): 5.43 ± 1.20 % ID/10^6 cells
Organ distribution: Blood [5]: 0.36 ± 0.05 % dose/g
Organ distribution: Bone [5]: 0.11 ± 0.04 % dose/g
Organ distribution: Brain [5]: 0.03 ± 0.01 % dose/g
Organ distribution: Heart [5]: 0.19 ± 0.04 % dose/g
Organ distribution: Liver [5]: 0.36 ± 0.10 % dose/g
Organ distribution: Lung [5]: 0.46 ± 0.13 % dose/g
Organ distribution: Muscle [5]: 0.21 ± 0.15 % dose/g
Organ distribution: Pancreas [5]: 0.20 ± 0.05 % dose/g
Organ distribution: Skin [5]: 0.33 ± 0.17 % dose/g
Organ distribution: Spleen [5]: 0.70 ± 0.38 % dose/g
